# According to PubChem BioAssay AID1918941 (Molecular Pharmacology Branch, DTP, NCI, 2023):
# Tested on: SW 1271 complex spheroids, viability
# Test: Anticancer human tumor SW 1271 cell line growth inhibition [LSD1];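 also: spheroids exposed to agents for 7 days before luminescence read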;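 as to viability, T/C: 100% = DMSO vehicle control viability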
# Conditions: for IC50: curve of first compound; for viability, T/C: stronger effect = lower value
# How it was run: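 Complex spheroids of tumor cells with HUVEC and human MSCs, exposed to iadademstat combined with other agents. Each agent tested in half-log steps from near clinical Cmax (else 10 microM top), DMSO ≤0.25%.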
# [1] = second compound 0.1 µM, first compound 0.000316 µM
# [2] = second compound 0.1 µM, first compound 0.001 µM
# [3] = second compound 0.1 µM, first compound 0.00316 µM
# [4] = second compound 0.1 µM, first compound 0.01 µM
# [5] = second compound 0.1 µM, first compound 0.0316 µM
# [6] = second compound 0.1 µM, first compound 0.1 µM
# [7] = second compound 0.316 µM, first compound 0.000316 µM
# [8] = second compound 0.316 µM, first compound 0.001 µM
# [9] = second compound 0.316 µM, first compound 0.00316 µM
# [10] = second compound 0.316 µM, first compound 0.01 µM
# [11] = second compound 0.316 µM, first compound 0.0316 µM
# [12] = second compound 0.316 µM, first compound 0.1 µM
# [13] = second compound 1 µM, first compound 0.000316 µM
# [14] = second compound 1 µM, first compound 0.001 µM
# [15] = second compound 1 µM, first compound 0.00316 µM
# [16] = second compound 1 µM, first compound 0.01 µM
# [17] = second compound 1 µM, first compound 0.0316 µM
# [18] = second compound 1 µM, first compound 0.1 µM
# [19] = second compound 3.16 µM, first compound 0.000316 µM
# [20] = second compound 3.16 µM, first compound 0.001 µM
# [21] = second compound 3.16 µM, first compound 0.00316 µM
# [22] = second compound 3.16 µM, first compound 0.01 µM
# [23] = second compound 3.16 µM, first compound 0.0316 µM
# [24] = second compound 3.16 µM, first compound 0.1 µM
# [25] = second compound 10 µM, first compound 0.000316 µM
# [26] = second compound 10 µM, first compound 0.001 µM
# [27] = second compound 10 µM, first compound 0.00316 µM
# [28] = second compound 10 µM, first compound 0.01 µM
# [29] = second compound 10 µM, first compound 0.0316 µM
# [30] = second compound 10 µM, first compound 0.1 µM
SMILES,IC50 (second compound 0.1 µM),IC50 (second compound 0.316 µM),IC50 (second compound 1 µM),IC50 (second compound 3.16 µM),IC50 (second compound 10 µM),"viability, T/C [3]","viability, T/C [4]","viability, T/C [5]","viability, T/C [6]","viability, T/C [9]","viability, T/C [10]","viability, T/C [11]","viability, T/C [12]","viability, T/C [15]","viability, T/C [16]","viability, T/C [17]","viability, T/C [18]","viability, T/C [21]","viability, T/C [22]","viability, T/C [23]",further results
CC(C)CC(NC(=O)C(Cc1ccccc1)NC(=O)c1cnccn1)B(O)O (stereo not given) + NC1CCC(NC2CC2c2ccccc2)CC1,< 0.316 nM,< 0.316 nM,< 0.316 nM,< 0.316 nM,< 0.316 nM,0.16%,0.13%,0.13%,0.32%,0.12%,0.27%,0.33%,0.2%,1.7%,0.43%,0.14%,0.11%,0.37%,0.09%,0.16%,"viability, T/C [1]: 2.37%; viability, T/C [2]: 0.35%; viability, T/C [7]: 3.05%; viability, T/C [8]: 0.13%; viability, T/C [13]: 2.83%; viability, T/C [14]: 0.08%; viability, T/C [19]: 2.94%; viability, T/C [20]: 0.33%; viability, T/C [24]: 0.31%; viability, T/C [25]: 2.41%; viability, T/C [26]: 0.43%; viability, T/C [27]: 0.14%; viability, T/C [28]: 0.16%; viability, T/C [29]: 0.12%; viability, T/C [30]: 0.19%"
CC(C)CC(NC(=O)CNC(=O)c1cc(Cl)ccc1Cl)B1OC(=O)CC(CC(=O)O)(C(=O)O)O1 (stereo not given) + NC1CCC(NC2CC2c2ccccc2)CC1,4.95 nM,4.94 nM,5.09 nM,5.19 nM,5.23 nM,78.4%,5.55%,0.31%,0.44%,78.1%,5.75%,0.88%,0.13%,83.8%,6.04%,0.34%,0.23%,81.4%,8.6%,0.51%,"viability, T/C [1]: 93.8%; viability, T/C [2]: 88.8%; viability, T/C [7]: 92.7%; viability, T/C [8]: 90%; viability, T/C [13]: 78.5%; viability, T/C [14]: 80.4%; viability, T/C [19]: 93.7%; viability, T/C [20]: 93.9%; viability, T/C [24]: 0.36%; viability, T/C [25]: 85.3%; viability, T/C [26]: 79.2%; viability, T/C [27]: 86.2%; viability, T/C [28]: 6.72%; viability, T/C [29]: 0.65%; viability, T/C [30]: 0.38%"
COc1cc(Nc2ncc3c(n2)-c2ccc(Cl)cc2C(c2c(F)cccc2OC)=NC3)ccc1C(=O)O + NC1CCC(NC2CC2c2ccccc2)CC1,200 nM,148 nM,184 nM,175 nM,186 nM,84.2%,78.2%,80.3%,59.5%,81.2%,80.3%,75.9%,55.4%,83.5%,81.9%,85.4%,58.3%,97.3%,80.4%,84.8%,"viability, T/C (second compound 0.1 µM, first compound 0.316 µM): 42.9%; viability, T/C (second compound 0.1 µM, first compound 1 µM): 16%; viability, T/C (second compound 0.316 µM, first compound 0.316 µM): 36%; viability, T/C (second compound 0.316 µM, first compound 1 µM): 13.5%; viability, T/C (second compound 1 µM, first compound 0.316 µM): 40.4%; viability, T/C (second compound 1 µM, first compound 1 µM): 13.7%; viability, T/C [24]: 62.1%; viability, T/C (second compound 3.16 µM, first compound 0.316 µM): 36.3%; viability, T/C (second compound 3.16 µM, first compound 1 µM): 15.1%; viability, T/C [27]: 81.3%; viability, T/C [28]: 80.5%; viability, T/C [29]: 79.7%; viability, T/C [30]: 59.2%; viability, T/C (second compound 10 µM, first compound 0.316 µM): 40.7%; viability, T/C (second compound 10 µM, first compound 1 µM): 14.1%"
